Values quoted from earlier work as cited in patent US20240199566A1, “CATALYTIC SYNTHESIS OF DELTA-VALEROLACTONE (DVL) FROM FURFURAL-DERIVED 2-HYDROXYTETRAHYDROPYRAN (HTHP)” (Wisconsin Alumni Research Foundation, priority 2022, published 2024).

Settings: stated as a property, no test described

For `C1=COCCC1` [DHP, 3,4-dihydropyran], the solubility in water is listed as less than 1 wt %.
